The target of the assay is T1, hFXR (Homo sapiens, UniProt Q96RI1).
T1 construct: expressed in transfected cells; host or cells: CV-1 cells
T1 sequence (Q96RI1 1-486): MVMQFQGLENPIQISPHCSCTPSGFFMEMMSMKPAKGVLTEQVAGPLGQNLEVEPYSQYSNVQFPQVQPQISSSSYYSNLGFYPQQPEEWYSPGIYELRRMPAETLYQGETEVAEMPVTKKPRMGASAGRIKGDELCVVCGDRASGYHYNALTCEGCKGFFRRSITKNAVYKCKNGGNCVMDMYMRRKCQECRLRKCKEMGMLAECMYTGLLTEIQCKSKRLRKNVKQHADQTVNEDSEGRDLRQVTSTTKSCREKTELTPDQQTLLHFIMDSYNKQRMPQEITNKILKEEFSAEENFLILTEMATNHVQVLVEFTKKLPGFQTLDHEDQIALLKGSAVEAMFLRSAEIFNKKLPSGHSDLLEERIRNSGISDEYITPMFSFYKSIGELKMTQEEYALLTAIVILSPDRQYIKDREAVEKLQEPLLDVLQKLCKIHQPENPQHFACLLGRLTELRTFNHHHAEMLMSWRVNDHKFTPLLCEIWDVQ
T1 sequence (P19793 1-462 partner): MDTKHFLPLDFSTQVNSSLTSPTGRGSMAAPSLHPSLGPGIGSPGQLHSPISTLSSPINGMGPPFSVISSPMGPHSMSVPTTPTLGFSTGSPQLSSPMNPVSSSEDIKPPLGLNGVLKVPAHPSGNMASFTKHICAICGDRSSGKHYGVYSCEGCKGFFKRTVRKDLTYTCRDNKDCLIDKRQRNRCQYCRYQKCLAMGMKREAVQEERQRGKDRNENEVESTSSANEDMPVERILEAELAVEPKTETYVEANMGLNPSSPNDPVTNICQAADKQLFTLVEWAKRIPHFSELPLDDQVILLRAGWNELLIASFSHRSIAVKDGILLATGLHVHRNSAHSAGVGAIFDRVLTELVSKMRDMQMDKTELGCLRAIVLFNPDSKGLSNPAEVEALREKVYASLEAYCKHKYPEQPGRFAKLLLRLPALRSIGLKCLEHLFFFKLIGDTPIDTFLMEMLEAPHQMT
The assay can be described thus: In Vitro FXR Assay (TK): TK-ECRE-luc reporter in transfected CV-1 cells. The class given is cell-based. Conditions: 18 hrs, luminescence, maximum efficacy of <25% of the Fexarmine control classified as '+'. The method in brief: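 CV-1 cells in DMEM with 10% charcoal-stripped FBS were co-transfected with hFXR, hRXR, TK-ECRE-luc reporter and pCMX-YFP plasmids. After 18 h, compounds serially diluted in DMSO were added for a further 18 h, then cells were lysed and luminescence read.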

In general, EC50 refers to the concentration that produces a half-maximal response. The low end stands for a more potent agent, the high end for a less potent agent.

Compound `COc1ccc([C@H]2CC[C@H](CN(c3cccc(-c4cnn(C5CC5)c4)c3)C(=O)[C@H]3CC[C@H](NC(=O)C4CC(OC)C4)CC3)CC2)cc1C` (stereo partly drawn) [Compound 30, trans-N-(3-(1-Cyclopropyl-1H-pyrazol-4-yl)phenyl)-N-((trans-4-(4-methoxy-3-methylphenyl)cyclohexyl)methyl)-4-(3-methoxycyclobutanecarboxamido)cyclohexanecarboxamide] displayed an EC50 of no more than 0.25 µM. On to `COc1ccc([C@H]2CC[C@H](CN(c3cc(-c4coc(C5CC5)n4)ccn3)C(=O)[C@H]3CC[C@H](OC(=O)NC(C)CO)CC3)CC2)nc1C` (stereo partly drawn) [Compound 6.71, trans-4-((4-(2-Cyclopropyloxazol-4-yl)pyridin-2-yl)((trans-4-(5-methoxy-6-methylpyridin-2-yl)cyclohexyl)methyl)carbamoyl)cyclohexyl (1-hydroxypropan-2-yl)carbamate], for which the 50% effective concentration (EC50) is no more than 0.25 µM. The same measure for `COc1ccc([C@H]2CC[C@H](CN(c3cccc(-c4cnc(C5CC5)s4)c3)C(=O)[C@H]3CC[C@H](NC(=O)C(C)(C)O)CC3)CC2)cc1C` [Compound 27, trans-N-(3-(2-Cyclopropylthiazol-5-yl)phenyl)-4-(2-hydroxy-2-methylpropanamido)-N-((trans-4-(4-methoxy-3-methylphenyl)cyclohexyl)methyl)cyclohexanecarboxamide]: no more than 0.25 µM; for `COc1ccc([C@H]2CC[C@H](CN(c3cccc(-c4cnn(C(C)C)c4)c3)C(=O)[C@H]3CC[C@H](OC(=O)N4CC(O)C4)CC3)CC2)nc1C` [Compound 7.15, trans-4-((3-(1-Isopropyl-1H-pyrazol-4-yl)phenyl)((trans-4-(5-methoxy-6-methylpyridin-2-yl)cyclohexyl)methyl)carbamoyl)cyclohexyl 3-hydroxyazetidine-1-carboxylate]: no more than 0.25 µM; for `COc1ccc([C@H]2CC[C@H](CN(c3cc(-c4cnn(C5CC5)c4)ccn3)C(=O)[C@H]3CC[C@H](C(=O)OC)CC3)CC2)nc1C` [Compound 18.17, trans-Methyl 4-((4-(1-cyclopropyl-1H-pyrazol-4-yl)pyridin-2-yl)((trans-4-(5-methoxy-6-methylpyridin-2-yl)cyclohexyl)methyl)carbamoyl) cyclohexanecarboxylate]: 0.25 to 1 µM. The same measure for `COCC1CN(C(=O)O[C@H]2CC[C@H](C(=O)N(C[C@H]3CC[C@H](c4ccc(OC)c(C)n4)CC3)c3cc(-c4coc(C5CC5)n4)ccn3)CC2)C1` [Compound 7.77, trans-4-((4-(2-Cyclopropyloxazol-4-yl)pyridin-2-yl)((trans-4-(5-methoxy-6-methylpyridin-2-yl)cyclohexyl)methyl)carbamoyl)cyclohexyl 3-(methoxymethyl)azetidine-1-carboxylate]: no more than 0.25 µM; for `COc1ccc([C@H]2CC[C@H](CN(c3cccc(-c4cnc(C5CC5)s4)c3)C(=O)[C@H]3CC[C@H](NC(=O)CS(C)(=O)=O)CC3)CC2)cc1C` [Compound 31.12, trans-N-(3-(2-Cyclopropylthiazol-5-yl)phenyl)-N-((trans-4-(4-methoxy-3-methylphenyl)cyclohexyl)methyl)-4-(2-(methylsulfonyl)acetamido) cyclohexanecarboxamide]: no more than 0.25 µM; for `COc1ccc([C@H]2CC[C@H](CN(c3cccc(-c4cnc(C5CC5)s4)c3)C(=O)[C@H]3CC[C@H](NC(=O)CNC(C)=O)CC3)CC2)cc1C` [Compound 31.09, trans-4-(2-Acetamidoacetamido)-N-(3-(2-cyclopropylthiazol-5-yl)phenyl)-N-((trans-4-(4-methoxy-3-methylphenyl)cyclohexyl)methyl)cyclohexanecarboxamide]: no more than 0.25 µM.

Take `COc1ccc([C@H]2CC[C@H](CN(c3cccc(-c4cnn(C5CC5)c4)c3)C(=O)[C@H]3CC[C@H](OC(=O)N4CCSCC4)CC3)CC2)cc1C` [Compound 6.27, trans-4-((3-(1-Cyclopropyl-1H-pyrazol-4-yl)phenyl)((trans-4-(4-methoxy-3-methylphenyl)cyclohexyl)methyl)carbamoyl)cyclohexyl thiomorpholine-4-carboxylate]: the EC50 is no more than 0.25 µM.

These data come from patent US20220089575A1, “FARNESOID X RECEPTOR AGONISTS AND USES THEREOF” (Metacrine, Inc., priority 2017, published 2022).
